Test results taken from patent US7868020B2, “Quinolynylmethylimidizoles as therapeutic agents” (Allergan, Inc., priority 2007, dated 2011).

How the values were obtained:
[1] = in vitro assay (not specified) of separated enantiomers; settings: enantiomers separated by chiral HPLC
Excerpt: Compound (6) was separated by chiral HPLC: […]® OD with 85% hexane and 15% ethanol at rt. The (+)-7-(5-methyl-1H-imidazol-4-ylmethyl)-5,6,7,8-tetrahydro-quinoline (8) corresponding to the second eluting peak was active in an in vitro assay.

Alpha 2B = target: T1, Alpha 2B (Homo sapiens, UniProt P18089); assay: RSAT assay, Alpha 2B receptor; type: cell-based; settings: for EC50: RSAT, transfected NIH-3T3 cells, coexpressed Gq/i5; for Alpha 2B (IA) intrinsic activity: ratio of maximal effect to that of standard full agonist brimonidine
T1 construct: expressed in transfected cells; host or cells: NIH-3T3
T1 sequence (P18089 1-450): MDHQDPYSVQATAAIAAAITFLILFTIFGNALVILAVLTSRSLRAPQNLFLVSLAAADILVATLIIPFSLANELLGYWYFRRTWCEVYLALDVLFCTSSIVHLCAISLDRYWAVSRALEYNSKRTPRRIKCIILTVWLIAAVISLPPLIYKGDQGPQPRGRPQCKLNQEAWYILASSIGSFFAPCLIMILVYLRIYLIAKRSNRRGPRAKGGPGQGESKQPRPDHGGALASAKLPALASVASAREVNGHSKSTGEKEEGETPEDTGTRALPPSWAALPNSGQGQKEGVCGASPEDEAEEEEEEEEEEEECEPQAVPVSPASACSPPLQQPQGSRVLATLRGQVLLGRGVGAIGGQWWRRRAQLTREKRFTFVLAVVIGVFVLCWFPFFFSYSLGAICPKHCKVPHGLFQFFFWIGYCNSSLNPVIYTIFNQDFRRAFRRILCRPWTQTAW
Method: (§1) The RSAT assay measures a receptor-mediated loss of contact inhibition that results in selective proliferation of receptor-containing cells in a mixed population of confluent cells. The increase in cell number is assessed with an appropriate transfected marker gene such as […]-galactosidase, the activity of which can be easily measured in a 96-well format. Receptors that activate the G protein, Gq, elicit this response. Alpha2 receptors, which normally couple to Gi, activate the RSAT response when coexpressed with a hybrid Gq protein that has a Gi receptor recognition domain, called Gq/i5.
(§2) NIH-3T3 cells are plated at a density of 2×10^6 cells in 15 cm dishes and maintained in Dulbecco's modified Eagle's medium supplemented with 10% calf serum. One day later, cells are cotransfected by calcium phosphate precipitation with mammalian expression plasmids encoding p-SV-β-galactosidase (5-10 μg), receptor (1-2 μg) and G protein (1-2 μg). 40 μg salmon sperm DNA may also be included in the transfection mixture. Fresh media is added on the following day and 1-2 days later, cells are harvested and frozen in 50 assay aliquots. Cells are thawed and 100 μl added to 100 μl aliquots of various concentrations of drugs in triplicate in 96-well dishes. Incubations continue 72-96 hr at 37° C. After washing with phosphate-buffered saline, β-galactosidase enzyme activity is determined by adding 200 μl of the chromogenic substrate (consisting of 3.5 mM o-nitrophenyl-β-D-galactopyranoside and 0.5% nonidet P-40 in phosphate buffered saline), incubating overnight at 30° C. and measuring optical density at 420 nm. The absorbance is a measure of enzyme activity, which depends on cell number and reflects a receptor-mediated cell proliferation. The efficacy or intrinsic activity is calculated as a ratio of the maximal effect of the drug to the maximal effect of a standard full agonist for each receptor subtype. Brimonidine, also called UK14304, the chemical structure of which is shown below, is used as the standard agonist for the alpha2A, alpha2B and alpha2C receptors. The EC50 is the concentration at which the drug effect is half of its maximal effect.
(§3) The results of the RSAT assay with several exemplary compounds of the invention are disclosed in Table 1 above together with the chemical formulas of these exemplary compounds. EC50 values are nanomolar. NA stands for “not active” at concentrations less than 10 micromolar. IA stands for “intrinsic activity.”

Alpha 2A = target: T2, Alpha 2A (Homo sapiens, UniProt P08913); assay: RSAT assay, Alpha 2A receptor; type: cell-based; settings: transfected NIH-3T3 cells, coexpressed Gq/i5
T2 construct: expressed in transfected cells; host or cells: NIH-3T3
T2 sequence (P08913 1-465): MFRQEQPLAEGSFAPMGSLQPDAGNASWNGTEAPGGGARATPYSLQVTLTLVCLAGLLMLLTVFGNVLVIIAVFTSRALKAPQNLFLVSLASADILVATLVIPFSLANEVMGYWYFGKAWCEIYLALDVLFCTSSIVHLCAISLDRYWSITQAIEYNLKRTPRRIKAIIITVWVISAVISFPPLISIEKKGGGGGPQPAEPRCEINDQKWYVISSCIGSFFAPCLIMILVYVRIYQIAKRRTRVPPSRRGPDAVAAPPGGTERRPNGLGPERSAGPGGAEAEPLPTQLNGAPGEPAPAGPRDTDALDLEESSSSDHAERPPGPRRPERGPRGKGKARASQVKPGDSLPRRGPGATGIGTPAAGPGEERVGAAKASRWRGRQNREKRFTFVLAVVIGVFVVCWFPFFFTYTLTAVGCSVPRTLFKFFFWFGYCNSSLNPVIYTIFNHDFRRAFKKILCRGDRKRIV
Method: as §1
NIH-3T3 cells are plated at a density of 2×10^6 cells in 15 cm dishes and maintained in Dulbecco's modified Eagle's medium supplemented with 10% calf serum. […] After washing with phosphate-buffered saline, β-galactosidase enzyme activity is determined by adding 200 μl of the chromogenic substrate (consisting of 3.5 mM o-nitrophenyl-β-D-galactopyranoside and 0.5% nonidet P-40 in phosphate buffered saline), incubating overnight at 30° C. and measuring optical density at 420 nm. The absorbance is a measure of enzyme activity, which depends on cell number and reflects a receptor-mediated cell proliferation. The efficacy or intrinsic activity is calculated as a ratio of the maximal effect of the drug to the maximal effect of a standard full agonist for each receptor subtype. […]

Alpha 1A = target: T3, Alpha 1A (Homo sapiens, UniProt P35348); assay: RSAT assay, Alpha 1A receptor; type: cell-based; settings: for EC50: RSAT, transfected NIH-3T3 cells; for Alpha 1A (IA) intrinsic activity: ratio of maximal effect of drug to maximal effect of standard full agonist
T3 construct: expressed in transfected cells; host or cells: NIH-3T3
T3 sequence (P35348 1-466): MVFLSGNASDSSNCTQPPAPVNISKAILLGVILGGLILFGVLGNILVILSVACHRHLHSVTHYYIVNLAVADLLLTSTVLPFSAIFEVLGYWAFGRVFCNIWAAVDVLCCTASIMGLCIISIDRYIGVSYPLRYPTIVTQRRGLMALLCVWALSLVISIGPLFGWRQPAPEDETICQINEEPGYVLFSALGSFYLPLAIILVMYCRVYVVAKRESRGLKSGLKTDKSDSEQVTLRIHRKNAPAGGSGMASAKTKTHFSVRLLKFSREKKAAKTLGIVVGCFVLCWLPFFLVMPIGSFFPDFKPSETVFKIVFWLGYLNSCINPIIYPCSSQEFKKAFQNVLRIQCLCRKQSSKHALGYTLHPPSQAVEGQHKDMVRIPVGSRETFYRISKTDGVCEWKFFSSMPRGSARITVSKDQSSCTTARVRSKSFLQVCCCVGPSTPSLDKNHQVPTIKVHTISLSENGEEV
Method: as §1, §2, §3

Alpha 2C = target: T4, Alpha 2C (Homo sapiens, UniProt P18825); assay: RSAT assay, Alpha 2C receptor; type: cell-based; settings: for EC50: RSAT, transfected NIH-3T3 cells, coexpressed Gq/i5; for Alpha 2C (IA) intrinsic activity: ratio of maximal effect to that of standard full agonist brimonidine
T4 construct: expressed in transfected cells; host or cells: NIH-3T3
T4 sequence (P18825 1-462): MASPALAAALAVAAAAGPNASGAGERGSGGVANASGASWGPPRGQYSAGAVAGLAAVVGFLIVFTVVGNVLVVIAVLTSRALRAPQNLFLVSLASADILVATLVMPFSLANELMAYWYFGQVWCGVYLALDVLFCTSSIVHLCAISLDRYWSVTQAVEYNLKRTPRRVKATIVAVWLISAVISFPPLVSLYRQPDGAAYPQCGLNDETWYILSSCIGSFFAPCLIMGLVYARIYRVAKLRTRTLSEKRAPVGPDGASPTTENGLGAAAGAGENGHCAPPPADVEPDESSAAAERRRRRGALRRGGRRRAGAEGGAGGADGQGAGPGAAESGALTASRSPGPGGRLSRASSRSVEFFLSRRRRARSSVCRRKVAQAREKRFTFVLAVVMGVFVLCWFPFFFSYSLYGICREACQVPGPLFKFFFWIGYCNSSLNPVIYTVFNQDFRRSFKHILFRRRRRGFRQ
Method: as §1, §2, §3

| Structure (SMILES) | activity in an in vitro assay [1] | EC50 (Alpha 2B) | Alpha 2B (IA) intrinsic activity (Alpha 2B) | EC50 (Alpha 2A) | EC50 (Alpha 1A) | Alpha 1A (IA) intrinsic activity (Alpha 1A) | EC50 (Alpha 2C) | Alpha 2C (IA) intrinsic activity (Alpha 2C) |
| --- | --- | --- | --- | --- | --- | --- | --- | --- |
| Cc1[nH]cnc1CC1CCc2cccnc2C1 (single isomer, unassigned; (-)) [Compound 7, (−)-7-(5-methyl-1H-imidazol-4-ylmethyl)-5,6,7,8-tetrahydro-quinoline] | inactive | – | – | – | – | – | – | – |
| Cc1[nH]cnc1CC1CCc2cccnc2C1 (stereo not shown) [drawing 16] | – | 37 nM | 0.7 | > 10 µM | 876 nM | 0.66 | 366 nM | 0.47 |
| Cc1[nH]cnc1CC1CCc2cccnc2C1 (stereo not shown) [drawing 15] | – | 57 nM | 0.32 | > 10 µM | 3340 nM | 0.66 | 207 nM | 0.63 |
| Cc1[nH]cnc1CC1CCc2cccnc2C1 (single isomer, unassigned; (+)) [Compound 8, (+)-7-(5-methyl-1H-imidazol-4-ylmethyl)-5,6,7,8-tetrahydro-quinoline] | active | – | – | – | – | – | – | – |
